The test system of experiment [1] is brain cell types. The experiment is described as follows: In vivo two-photon imaging of mouse cortex after topical cortical administration of fluorophores. The note with it: for Target: cell type taking up the compound in vivo (Table 1); for in vivo endothelial labeling/uptake: two-photon images of mouse cortex, route and concentration not stated; for endothelial cell labeling/uptake after topical application to the brain: topical cortical application. The method, then: Briefly, animals are anaesthetized via intraperitoneal injections of ketamine/xylazine or via inhaled isoflurane. A region of the skull (3×3 mm) is gently removed with a high-speed drill and the underlying dura is removed. A small glass coverslip is placed over the skull to allow long term optical access for in vivo imaging. Labeling with fluorescent dyes is performed either via intravenous injections or topically application to the cortical surface for 20 min prior to glass cover placement. After recovery, in vivo images are acquired using a two-photon microscope (Bruker Technologies) equipped with a multimodal (fixed wavelength 1040 nm and tunable wavelength) InSight X3 two-photon laser (Spectra Physics) and 20× water immersion objective (Zeiss 1.0N.A.). The two-photon laser is appropriately tuned to excite particular fluorescent dyes and proteins as needed. In selected cases, following in vivo imaging, mice will be sacrificed and perfused for follow up immunohistochemistry and high-resolution confocal imaging (Leica SP8) to further confirm colocalization of dyes and cells expressing particular transporters.
One-month-old wild-type mice were anesthetized using a ketamine/xylazine solution at doses of 100 mg/kg and 10 mg/kg, respectively. The fur around the skull area was shaved, and buprenex (0.1 mg per kg) and carprofen (5 mg per kg) were administered subcutaneously. Mice were kept on a heating pad at 37° C., and anesthesia was periodically monitored. The skin was treated with povidone-iodine solution, followed by cleaning with ethanol, and eye ointment was applied. A small skin section was excised to expose the skull. Thinning of the skull was performed in a circular area, followed by delicately lifting of the remaining skull without harm to the underlying brain. Within the circular region, the dura was gently removed using fine forceps, and a 4 mm cover glass was softly pressed onto the brain surface and affixed to the skull. Fluorescent dyes were applied either through intravenous injections or topically to the cortical surface for 20 minutes before placing the glass cover. A customized head bar was attached either by adhesive (for acute imaging) or permanently implanted (using dental cement, for chronic imaging) onto the skull. Mice were imaged under a two-photon microscope (Prairie Technologies) with a mode-locked MaiTai tunable laser (Spectra Physics). Imaging was performed with a 20× water immersion objective (Zeiss, 1.0NA). Images were captured at depths up to 300 μm from the pial surface using excitation wavelengths ranging from 750 to 950 nm as previously described. Mice undergoing chronic imaging received a recovery period on a heating pad post-surgery, and buprenex (0.1 mg per kg) and carprofen (5 mg per kg) were administered for 3 days.
Batches of 10 compounds were applied through the craniotomy to the cortical surface before placing a cover glass window. No additional washings were performed, and the cover glass was placed, allowing up to 3 hours of imaging of the cortical surface with a two-photon microscope. Following imaging, the data were analyzed to identify potential patterns of cell-specific labeling. […] Positive batches underwent three additional rounds of imaging, with each batch being sequentially split, until a single compound displaying cell-type-specific labeling was identified. As these compounds were not initially purified, the labeling may have resulted from fluorescent byproducts of synthesis. Consequently, large-scale synthesis, purification and characterization (FIGS. 29A-29D) of the identified compounds were conducted. The purified compounds were subsequently retested using in vivo imaging to confirm cell type specificity.
It was reasoned that the best strategy to identify fluorophores with specific affinity to certain cell types and transport mechanisms would be by direct screening in the intact in vivo brain microenvironment. […]

For experiment [2], the system named is NIH3T3 cells. Briefly: Assessment of pharmacological effects in vitro in NIH3T3 cells (tubulin staining, multinucleated cells). In kind it is cell-based.
Excerpt: Confocal microscopy of the different treatment groups allowed us to visualize Hoechst dye-labeled nuclei to quantify the proportion of cells with multinucleated phenotype which is known to occur with Colchicine treatments.

Experimental findings from patent publication US20260272895A1, “METHODS AND KITS FOR DELIVERY OF COMPOUNDS INTO CELLS” (Yale University, priority 2023, published 2026) are described below.

SMILES strings stand for the structures.

Turning to `O=S(=O)([O-])c1cc(S(=O)(=O)O)ccc1C1=c2cc3c4c(c2Oc2cc(F)c(Cl)cc21)CCC[N+]=4CCC3` [Compound 9, 2-(11-chloro-12-fluoro-1,2,3,5,6,7-hexahydrochromeno[2,3-f]pyrido[3,2,1-ij]quinolin-4-ium-9-yl)-5-sulfobenzenesulfonate], the Target entry in experiment [1] was “Endothelial”. As to `COc1cc2c(c(OC)c1OC)-c1ccc(OC)c(=O)cc1[C@@H](NC(C)=O)CC2` [Colchicine], the alpha tubulin staining result in experiment [2] (30 μM, NIH3T3 cells (FIG. 11A)) is reported as “equal disruption of the tubulin structure”; in experiment [2] (100 μM, NIH3T3 cells (FIG. 11B)) it was “equal disruption of the tubulin structure”. For the same compound, the phalloidin staining entry in experiment [2] (100 μM, NIH3T3 cells (FIG. 11D)) is “disruption of the tubulin structure”; in experiment [2] (NIH3T3 cells (FIG. 11C), concentration not given), “equal disruption of the tubulin structure”. The “cell morphology / multinucleated cells” value in experiment [2] (NIH3T3 cells (FIG. 17A)) is “changes in cell morphology and presence of multinucleated cells”. Moreover, in experiment [2] (NIH3T3 cells, 12 hours, varying concentrations (FIG. 17A)), the “pattern of α-tubulin immunofluorescence” value is recorded as “diffuse labeling pattern”. In the case of `CCN(CC)c1ccc2c(-c3ccc(S(=O)(=O)NCCOCCOCCOCCOCCOCCOCCOCCOCCOCCOCCOCCOCCOCCOCCOCCOCCOCCOCCOCCOCCOCCOCCOCCOCCOCCOCCOCCOCCOCCOCCOCCOCCOCCOCCOCCOCCOCCOCCOCCOCCOCCOCCOCCOCCOC)cc3S(=O)(=O)[O-])c3ccc(N(CC)CC)cc3[o+]c2c1` [Compound 57], the “in vivo endothelial labeling/uptake” value in experiment [1] is “highly specific in vivo endothelial labeling”. On the same count and under the same terms, then `CN(C)c1ccc2c(-c3ccc(S(=O)(=O)NCCNC(=O)OC(C)(C)C)cc3S(=O)(=O)[O-])c3ccc(N(C)C)cc3[o+]c2c1` [Compound 55, 2-(3,6-bis(dimethylamino)xanthylium-9-yl)-5-(N-(2-((tert-butoxycarbonyl)amino)ethyl)sulfamoyl)benzenesulfonate], with “robust endothelial cell body uptake”.

For the compound `O=S(=O)([O-])c1cc(S(=O)(=O)O)ccc1C1=c2cc3c4c(c2Oc2ccc(Br)cc21)CCC[N+]=4CCC3` [Compound 6, 2-(11-bromo-1,2,3,5,6,7-hexahydrochromeno[2,3-f]pyrido[3,2,1-ij]quinolin-4-ium-9-yl)-5-sulfobenzenesulfonate], in experiment [1], the Target result was “Endothelial”. Same read-out and setting: the result for `CN(C)c1ccc2c(-c3ccc(S(=O)(=O)O)cc3S(=O)(=O)[O-])c3ccc(Br)cc3[o+]c2c1` [Compound 42, 2-(3-bromo-6-(dimethylamino)xanthylium-9-yl)-5-sulfobenzenesulfonate] reads “Endothelial”; that for `O=S(=O)([O-])c1cc(S(=O)(=O)O)ccc1C1=c2cc3c4c(c2Oc2c1ccc(Br)c2F)CCC[N+]=4CCC3` [Compound 21, 2-(12-bromo-13-fluoro-1,2,3,5,6,7-hexahydrochromeno[2,3-f]pyrido[3,2,1-ij]quinolin-4-ium-9-yl)-5-sulfobenzenesulfonate], “Endothelial”; that for `Cc1ccc2c(-c3ccc(S(=O)(=O)O)cc3S(=O)(=O)[O-])c3cc4c5c(c3[o+]c2c1)CCCN5CCC4` [Compound 40, 2-(12-methyl-2,3,6,7-tetrahydro-1H,5H-chromeno[2,3-f]pyrido[3,2,1-ij]quinolin-14-ium-9-yl)-5-sulfobenzenesulfonate], “Endothelial”. Same read-out and setting: then `O=S(=O)([O-])c1cc(S(=O)(=O)O)ccc1-c1c2ccc(Br)cc2[o+]c2cc(N3CCOCC3)ccc12` [Compound 30, 2-(3-bromo-6-morpholinoxanthylium-9-yl)-5-sulfobenzenesulfonate], with “Endothelial”. On the same count and under the same terms, the result for `O=S(=O)([O-])c1cc(S(=O)(=O)O)ccc1-c1c2ccc(Br)cc2[o+]c2ccc(-n3cncn3)cc12` [Compound 33, 2-(6-bromo-2-(1H-1,2,4-triazol-1-yl)xanthylium-9-yl)-5-sulfobenzenesulfonate] reads “Endothelial”.

On to `CN(Cc1cnc2nc(NS(=O)(=O)c3ccc(C4=c5cc6c7c(c5Oc5cc(Br)ccc54)CCC[N+]=7CCC6)c(S(=O)(=O)[O-])c3)nc(N)c2n1)c1ccc(C(=O)N[C@@H](CCC(=O)O)C(=O)O)cc1` [52a/52b], for which the “endothelial cell labeling/uptake after topical application to the brain” value in experiment [1] was “very strong”. Turning to `CCN(CC)c1ccc2c(-c3ccc(S(=O)(=O)O)cc3S(=O)(=O)[O-])c3cc(Br)ccc3[o+]c2c1` [Compound 39, 2-(2-bromo-6-(diethylamino)xanthylium-9-yl)-5-sulfobenzenesulfonate], the Target entry in experiment [1] is given as “Endothelial”.

On to `O=S(=O)([O-])c1cc(S(=O)(=O)O)ccc1C1=c2cc3c4c(c2Oc2c1ccc(F)c2Cl)CCC[N+]=4CCC3` [Compound 22, 2-(13-chloro-12-fluoro-1,2,3,5,6,7-hexahydrochromeno[2,3-f]pyrido[3,2,1-ij]quinolin-4-ium-9-yl)-5-sulfobenzenesulfonate], for which the Target result in experiment [1] is reported as “Endothelial”. Still for that read-out and setting: the result for `O=C(O)CCc1ccc2c(c1)Oc1c3c4c(cc1=C2c1ccc(S(=O)(=O)O)cc1S(=O)(=O)[O-])CCC[N+]=4CCC3` [Compound 37, 2-(12-(2-carboxyethyl)-1,2,3,5,6,7-hexahydrochromeno[2,3-f]pyrido[3,2,1-ij]quinolin-4-ium-9-yl)-5-sulfobenzenesulfonate] reads “Astrocyte”. On to `CCN(CC)c1ccc2c(-c3ccc(S(=O)(=O)NCCOCCOCCOCCOCCOCCOCCOCCOCCOCCOCCOCCOCCOCCOCCOCCOCCOCCOCCOCCOCCOCCOC)cc3S(=O)(=O)[O-])c3ccc(N(CC)CC)cc3[o+]c2c1` [Compound 56], for which the “in vivo endothelial labeling/uptake” value in experiment [1] is listed as “highly specific in vivo endothelial labeling”. For the compound `O=[N+]([O-])c1ccc2c(-c3ccc(S(=O)(=O)O)cc3S(=O)(=O)[O-])c3ccc(Br)cc3[o+]c2c1` [Compound 28, 2-(3-bromo-6-nitroxanthylium-9-yl)-5-sulfobenzenesulfonate], in experiment [1], the Target result was “Endothelial”. Consider `CN(C)c1ccc2c(-c3ccc(S(=O)(=O)O)cc3S(=O)(=O)[O-])c3ccc(N(C)C)cc3[o+]c2c1` [Compound 43, 2-(3,6-bis(dimethylamino)xanthylium-9-yl)-5-sulfobenzenesulfonate], for which the Target result in experiment [1] is “Endothelial”. The “cellular labeling in cortex” value in experiment [1] (topical cortical administration, 50 μM, wild type mice) is reported as “robust endothelial specific uptake”. Turning to `O=S(=O)([O-])c1cc(S(=O)(=O)O)ccc1C1=c2cc3c4c(c2Oc2cc(Cl)c(Cl)cc21)CCC[N+]=4CCC3` [Compound 12, 2-(11,12-dichloro-1,2,3,5,6,7-hexahydrochromeno[2,3-f]pyrido[3,2,1-ij]quinolin-4-ium-9-yl)-5-sulfobenzenesulfonate], the Target result in experiment [1] is reported as “Endothelial”.

For the compound `O=S(=O)([O-])c1cc(S(=O)(=O)O)ccc1C1=c2cc3c4c(c2Oc2cc(I)ccc21)CCC[N+]=4CCC3` [Compound 4, 2-(12-iodo-1,2,3,5,6,7-hexahydrochromeno[2,3-f]pyrido[3,2,1-ij]quinolin-4-ium-9-yl)-5-sulfobenzenesulfonate], in experiment [1], the Target entry is on record as “Endothelial” and the “endothelial cell labeling/uptake after topical application to the brain” value is reported as “selectively labeling endothelial cells in vivo”. In the case of `O=S(=O)([O-])c1cc(S(=O)(=O)O)ccc1C1=c2cc3c4c(c2Oc2c(Br)cc(Br)cc21)CCC[N+]=4CCC3` [Compound 7, 2-(11,13-dibromo-1,2,3,5,6,7-hexahydrochromeno[2,3-f]pyrido[3,2,1-ij]quinolin-4-ium-9-yl)-5-sulfobenzenesulfonate], the Target entry in experiment [1] is given as “Endothelial”. Still for that read-out and setting: then `O=S(=O)([O-])c1cc(S(=O)(=O)O)ccc1-c1c2ccc(Br)cc2[o+]c2ccc(-n3ccnc3)cc12` [Compound 31, 2-(6-bromo-2-(1H-imidazol-1-yl)xanthylium-9-yl)-5-sulfobenzenesulfonate], with “Endothelial”. Still for that read-out and setting: the result for `O=S(=O)([O-])c1cc(S(=O)(=O)O)ccc1C1=c2cc3c4c(c2Oc2cc(Br)c(Cl)cc21)CCC[N+]=4CCC3` [Compound 15, 2-(12-bromo-11-chloro-1,2,3,5,6,7-hexahydrochromeno[2,3-f]pyrido[3,2,1-ij]quinolin-4-ium-9-yl)-5-sulfobenzenesulfonate] reads “Endothelial”.
